Test results from patent US20180344726A1, “ABUSE RESISTANT TRANSDERMAL DELIVERY DEVICES AND COMPOSITIONS COMPRISING AN OPIOID AGONIST AND A NON-TRANSDERMALLY DELIVERED N-OXIDE DERIVATIVE OF AN OPIOID ANTAGONIST FOR THE TREATMENT OF PAIN” (priority 2015, published 2018).
Values joined by “and” are separate entries in the source; they are usually repeats but may differ in a detail not shown here. Equal values may be shown once. Read-outs that look alike come from different tables or passages of the source.

Details: +37° C.; for Concentrations of Naloxone N-oxide in human plasma samples / Concentrations of Naloxone N-oxide in human whole blood samples: single replicates; for Mean concentration of Naloxone N-oxide in human plasma samples / Mean concentration of Naloxone N-oxide in human whole blood samples: mean of n=3
From the text: Analytical procedures followed were based on those outlined in the “Guideline on Bioanalytical Method Validation”, EMA, CHMP, EWP, July 2011 and “Reflection paper for laboratories that perform the analysis or evaluation of clinical trial samples, 28 Feb. 2012, EMA/INS/GCP/532137/2010” with reference to the “Guidance for Industry, Bioanalytical Method Validation” recommendations issued by the U.S. Department of Health and Human Services, Food and Drug Administration, Center for Drug Evaluation and Research (CDER), Center for Veterinary Medicine (CVM), May 2001, BP.
Control blank human plasma and blood containing K2EDTA as an anti-coagulant, was obtained from Clinical Trials Laboratory Service or BAS volunteers and was stored at nominally −20° C. and +4° C., respectively, when not in use. The mass spectrometer used was an Applied Biosystems AP15000 with the following settings:
All instrument control, data collection, peak area integration and storage was performed using Analyst (version 1.5.2). Peak areas were then imported into Watson LIMS (version 7.2.0.02) for regression and quantification. The mass spectrometer response (peak area ratio of analyte to internal standard) of each calibration standard was calculated by Watson LIMS and plotted against the nominal (prepared) concentration. A weighted (1/x^2) least squares linear regression analysis was used to calculate an equation of the calibration line.
Any concentrations below this level are reported as below the limit of quantification (BLQ). Samples with initial concentrations above the upper limit of quantification ([…]) were re-injected with a reduced injection volume (alongside QC High with reduced injection volume) and sample concentrations interpolated against a calibration curve injected with normal injection volume.

[1] = spiked with Naloxone-N-oxide 50 ng/mL, 20 minutes
[2] = spiked with Naloxone-N-oxide 50 ng/mL, 30 minutes
[3] = spiked with Naloxone-N-oxide 50 ng/mL, 45 minutes
[4] = spiked with Naloxone-N-oxide 50 ng/mL, 60 minutes
[5] = spiked with Naloxone-N-oxide 50 ng/mL, 120 minutes
[6] = spiked with Naloxone-N-oxide 250 ng/mL, 0 minutes
[7] = spiked with Naloxone-N-oxide 250 ng/mL, 10 minutes
[8] = spiked with Naloxone-N-oxide 250 ng/mL, 20 minutes
[9] = spiked with Naloxone-N-oxide 250 ng/mL, 30 minutes
[10] = spiked with Naloxone-N-oxide 250 ng/mL, 45 minutes
[11] = spiked with Naloxone-N-oxide 250 ng/mL, 60 minutes
[12] = spiked with Naloxone-N-oxide 250 ng/mL, 120 minutes

C=CC[N+]1([O-])CC[C@]23c4c5ccc(O)c4O[C@H]2C(=O)CC[C@@]3(O)[C@H]1C5 (stereo partly shown) [Naloxone N-oxide]
Concentrations of Naloxone N-oxide in human plasma samples [1]: 50.1 ng/mL and 47.1 ng/mL and 48.1 ng/mL
Concentrations of Naloxone N-oxide in human whole blood samples [1]: 20.3 ng/mL and 21.1 ng/mL and 19.9 ng/mL
Mean concentration of Naloxone N-oxide in human plasma samples [2]: 46.3 ng/mL
Mean concentration of Naloxone N-oxide in human whole blood samples [2]: 16.0 ng/mL
Concentrations of Naloxone N-oxide in human plasma samples [2]: 46.9 ng/mL and 44.1 ng/mL and 47.9 ng/mL
Concentrations of Naloxone N-oxide in human whole blood samples [2]: 15.9 ng/mL and 15.2 ng/mL and 16.9 ng/mL
Mean concentration of Naloxone N-oxide in human plasma samples [3]: 47.4 ng/mL
Mean concentration of Naloxone N-oxide in human whole blood samples [3]: 14.4 ng/mL
Concentrations of Naloxone N-oxide in human plasma samples [3]: 47.6 ng/mL and 49.1 ng/mL and 45.4 ng/mL
Concentrations of Naloxone N-oxide in human whole blood samples [3]: 14.1 ng/mL (2×) and 15.1 ng/mL
Mean concentration of Naloxone N-oxide in human plasma samples [4]: 48.0 ng/mL
Mean concentration of Naloxone N-oxide in human whole blood samples [4]: 10.4 ng/mL
Concentrations of Naloxone N-oxide in human plasma samples [4]: 50.0 ng/mL and 46.0 ng/mL and 48.1 ng/mL
Concentrations of Naloxone N-oxide in human whole blood samples [4]: 10.7 ng/mL and 10.6 ng/mL and 10.0 ng/mL
Mean concentration of Naloxone N-oxide in human plasma samples [5]: 46.1 ng/mL
Mean concentration of Naloxone N-oxide in human whole blood samples [5]: 4.24 ng/mL
Concentrations of Naloxone N-oxide in human plasma samples [5]: 47.6 ng/mL and 43.9 ng/mL and 46.8 ng/mL
Concentrations of Naloxone N-oxide in human whole blood samples [5]: 3.99 ng/mL and 4.51 ng/mL and 4.22 ng/mL
Mean concentration of Naloxone N-oxide in human plasma samples [6]: 233 ng/mL
Mean concentration of Naloxone N-oxide in human whole blood samples [6]: 255 ng/mL
Concentrations of Naloxone N-oxide in human plasma samples [6]: 236 ng/mL and 233 ng/mL and 229 ng/mL
Concentrations of Naloxone N-oxide in human whole blood samples [6]: 245 ng/mL and 254 ng/mL and 265 ng/mL
Mean concentration of Naloxone N-oxide in human plasma samples [7]: 225 ng/mL
Mean concentration of Naloxone N-oxide in human whole blood samples [7]: 141 ng/mL
Concentrations of Naloxone N-oxide in human plasma samples [7]: 218 ng/mL and 234 ng/mL and 223 ng/mL
Concentrations of Naloxone N-oxide in human whole blood samples [7]: 135 ng/mL and 143 ng/mL and 144 ng/mL
Mean concentration of Naloxone N-oxide in human plasma samples [8]: 232 ng/mL
Mean concentration of Naloxone N-oxide in human whole blood samples [8]: 111 ng/mL
Concentrations of Naloxone N-oxide in human plasma samples [8]: 228 ng/mL and 241 ng/mL and 226 ng/mL
Concentrations of Naloxone N-oxide in human whole blood samples [8]: 107 ng/mL and 111 ng/mL and 115 ng/mL
Mean concentration of Naloxone N-oxide in human plasma samples [9]: 229 ng/mL
Mean concentration of Naloxone N-oxide in human whole blood samples [9]: 97.6 ng/mL
Concentrations of Naloxone N-oxide in human plasma samples [9]: 231 ng/mL and 229 ng/mL and 226 ng/mL
Concentrations of Naloxone N-oxide in human whole blood samples [9]: 99.0 ng/mL and 96.8 ng/mL and 97.1 ng/mL
Mean concentration of Naloxone N-oxide in human plasma samples [10]: 228 ng/mL
Mean concentration of Naloxone N-oxide in human whole blood samples [10]: 81.4 ng/mL
Concentrations of Naloxone N-oxide in human plasma samples [10]: 225 ng/mL and 228 ng/mL and 230 ng/mL
Concentrations of Naloxone N-oxide in human whole blood samples [10]: 78.2 ng/mL and 80.8 ng/mL and 85.3 ng/mL
Mean concentration of Naloxone N-oxide in human plasma samples [11]: 231 ng/mL
Mean concentration of Naloxone N-oxide in human whole blood samples [11]: 69.0 ng/mL
Concentrations of Naloxone N-oxide in human plasma samples [11]: 242 ng/mL and 229 ng/mL and 221 ng/mL
Concentrations of Naloxone N-oxide in human whole blood samples [11]: 73.9 ng/mL and 65.5 ng/mL and 67.7 ng/mL
Mean concentration of Naloxone N-oxide in human plasma samples [12]: 225 ng/mL
Mean concentration of Naloxone N-oxide in human whole blood samples [12]: 49.3 ng/mL
Concentrations of Naloxone N-oxide in human plasma samples [12]: 239 ng/mL and 226 ng/mL and 211 ng/mL
Concentrations of Naloxone N-oxide in human whole blood samples [12]: 46.8 ng/mL and 52.8 ng/mL and 48.3 ng/mL
